From US6576619B2 (CV Therapeutics, Inc., priority 1999, dated 2003)

Key:
Rat Heart Rate [1] = test: Effect on rat heart rate (telemetry) after administration of pro-drug; assay type: in vivo, Sprague Dawley rats; settings: for decrease in heart rate: oral gavage, dose of 0.5 mg/kg
adenosine A1 = target: T1, adenosine A1 (Homo sapiens, UniProt P30542); settings: from Snowdy et al. abstract and WO 98/08855; cited from earlier work
T1 sequence (P30542 1-326): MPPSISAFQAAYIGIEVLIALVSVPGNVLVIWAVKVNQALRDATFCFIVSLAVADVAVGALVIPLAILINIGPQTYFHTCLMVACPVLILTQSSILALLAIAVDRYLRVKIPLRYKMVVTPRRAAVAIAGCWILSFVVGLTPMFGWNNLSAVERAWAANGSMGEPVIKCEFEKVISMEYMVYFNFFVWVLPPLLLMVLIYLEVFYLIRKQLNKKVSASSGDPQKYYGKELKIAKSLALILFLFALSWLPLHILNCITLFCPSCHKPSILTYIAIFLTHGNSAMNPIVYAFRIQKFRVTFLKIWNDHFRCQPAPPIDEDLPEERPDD

Rat Heart Rate [2] = test: Effect on rat heart rate (telemetry) after administration of pro-drug; assay type: in vivo, Sprague Dawley rats; set-up: key to Effect on Heart Rate: +++: Heart Rate decreased by 100-150 BPM; ++: Heart Rate decreased by 50-100 BPM; +: Heart rate decreased by 50 BPM; =/−: No reproducible effect on Heart Rate.; −: No effect on Heart Rate; settings: for Effect on Heart Rate: rat, oral gavage, 500 μGram dose, average of 3-6 rats
Experimental: Adult male and female Sprague Dawley rats were implanted with transducer/emitter modules of the Data Science Telemetry system (St. Paul, Minn.) to allow continuous monitoring of heart rate (HR). At the start of the experiment, basal HR was determine for 1 hour prior to gavage. A 500 μg dose of compounds prepared according to Examples 1-4 was administered to by oral gavage. The compounds were each prepared as stock solutions in DMSO and diluted at least 1:1000 in water for gavage. Following administration, HR was determined every five minutes. In these experiments, 3-6 rats were used to test each compounds. An average of the HR results are reported in Table 1, below and in FIGS. 1A, 2A, 3A and 4A.
Compound 1, identified above is an A1 Agonist. […] Thus, this in vivo assay is a measure of effect on heart rate following the oral administration of a pro-drug of a potent adenosine A1 agonist. The plasma concentrations of compound 1 was determined over time by cannulating the jugular of a separate specimen for subsequent blood collection. After a 24 hour recovery period, a pre-dose baseline HR as determined followed by gavage or IP injection of a compound being tested. Blood samples were taken and the concentration of compound 1 in the plasma was determined using LC/MS/MS methodologies.

Row | Structure (SMILES) | Effect on Heart Rate (Rat Heart Rate [2]) | further results
1 | OC[C@H]1O[C@@H](n2cnc3c(N[C@@H]4CCOC4)ncnc32)[C@H](O)[C@@H]1O [Compound 1] |  | effect on heart rate of the sinus rhythm (Rat Heart Rate [1]; rat, IP, 0.025 mg): lowers the heart rate; adenosine A1 agonist activity (adenosine A1): potent, selective adenosine A1 agonist
2 | CC(=O)OC[C@H]1OC(n2cnc3c(N[C@@H]4CCOC4)ncnc32)[C@H](OC(C)=O)[C@@H]1OC(C)=O (stereo partly drawn) [Compound 2, (5-{6-[((3R)oxolan-3-yl)amino]purin-9-yl}(2R, 3R, 4R)-3,4-diacetyloxyoxolan-2-yl)methyl acetate] | +++ (Heart Rate decreased by 100-150 BPM) | reversibility of effect on heart rate by theophylline (Rat Heart Rate [1]; rats, oral gavage 0.5 mg/kg, then theophylline 7.5 mg/kg): reversible; decrease in heart rate (Rat Heart Rate [1]; rats): 100-150 beats per minute
3 | CCCC(=O)OC[C@H]1OC(n2cnc3c(N[C@@H]4CCOC4)ncnc32)[C@H](OC(=O)CCC)[C@@H]1OC(=O)CCC (stereo partly drawn) [Compound 4, (5-{6-[((3R)oxolan-3-yl)amino]purin-9-yl}(2R, 3R, 4R)-3,4-dibutanoyloxyoxolan-2-yl)methyl butanoate] | + (Heart rate decreased by 50 BPM) | 
4 | CC(C)C(=O)OC[C@H]1OC(n2cnc3c(N[C@@H]4CCOC4)ncnc32)[C@H](OC(=O)C(C)C)[C@@H]1OC(=O)C(C)C (stereo partly drawn) [Compound 6, (5-{6-[((3R)oxolan-3-yl)amino]purin-9-yl}(2R, 3R, 4R)-3,4-bis(2-methylpropanoyloxy)oxolan-2-yl)methyl 2-methylpropanoate] | ++ (Heart Rate decreased by 50-100 BPM) | 
5 | CCC(=O)OC[C@H]1OC(n2cnc3c(N[C@@H]4CCOC4)ncnc32)[C@H](OC(=O)CC)[C@@H]1OC(=O)CC (stereo partly drawn) [Compound 7, (2-{6-[((3R)oxolan-3-yl)amino]purin-9-yl}(3R, 4R, 5R)-4-propanoyloxy-5-(propanoyloxymethyl)oxolan-3-yl propanoate] | + (Heart rate decreased by 50 BPM) | 
6 | O=C(OC[C@H]1OC(n2cnc3c(N[C@@H]4CCOC4)ncnc32)[C@H](OC(=O)C2CCCC2)[C@@H]1OC(=O)C1CCCC1)C1CCCC1 (stereo partly drawn) [Compound 8, 2-{6-[((3R)oxolan-3-yl)amino]purin-9-yl}(3R, 4R, 5R)-4-cyclopentylcarbonyloxy-5-(cyclopentylcarbonyloxymethyl)oxolan-3-yl cyclopentanecarboxylate] | +++ (Heart Rate decreased by 100-150 BPM) | decrease in heart rate (Rat Heart Rate [1]; rats): 100-150 beats per minute
7 | CCOCC(=O)OC[C@H]1OC(n2cnc3c(N[C@@H]4CCOC4)ncnc32)[C@H](OC(=O)COCC)[C@@H]1OC(=O)COCC (stereo partly drawn) [Compound 9, 2-{6-[((3R)oxolan-3-yl)amino]purin-9-yl}(3R, 4R, 5R)-4-(2-ethoxyacetyloxy)-5-[(2-ethoxyacetyloxy)methyl]oxolan-3-yl 2-ethoxyacetate] | ++ (Heart Rate decreased by 50-100 BPM) | 
8 | O=C(COCc1ccccc1)OC[C@H]1OC(n2cnc3c(N[C@@H]4CCOC4)ncnc32)[C@H](OC(=O)COCc2ccccc2)[C@@H]1OC(=O)COCc1ccccc1 (stereo partly drawn) [Compound 10, (5-{6-[((3R)oxolan-3-yl)amino]purin-9-yl}(2R, 3R, 4R)-3,4-bis[2-(phenylmethoxy)acetyloxy]oxolan-2-yl)methyl 2-(phenylmethoxy)acetate] | + (Heart rate decreased by 50 BPM) | 
9 | O=C(Cc1ccc([N+](=O)[O-])cc1)OC[C@H]1OC(n2cnc3c(N[C@@H]4CCOC4)ncnc32)[C@H](OC(=O)Cc2ccc([N+](=O)[O-])cc2)[C@@H]1OC(=O)Cc1ccc([N+](=O)[O-])cc1 (stereo partly shown) [Compound 11] | − | 
10 | NCC(=O)OC[C@H]1OC(n2cnc3c(N[C@@H]4CCOC4)ncnc32)[C@H](OC(=O)CN)[C@@H]1OC(=O)CN (stereo partly drawn) [Compound 12, 2-{6[((3R)oxolan-3-yl)amino]purin-9-yl}(3R, 4R, 5R)-4-(2-aminoacetyloxy)-5-[(2-aminoacetyloxy)methyl]oxolan-3-yl 2-aminoacetate] | − | 
11 | O=C(Cc1ccccc1)OC[C@H]1OC(n2cnc3c(N[C@@H]4CCOC4)ncnc32)[C@H](OC(=O)Cc2ccccc2)[C@@H]1OC(=O)Cc1ccccc1 (stereo partly drawn) [Compound 13, (5-{6-[((3R)oxolan-3-yl)amino]purin-9-yl}(2R, 3R, 4R)-3,4-bis(2-phenylethanoyloxy)oxolan-2-yl)methyl 2-phenylethananoate] | − | 
12 | O=C(OC[C@H]1OC(n2cnc3c(N[C@@H]4CCOC4)ncnc32)[C@H](OC(=O)c2cccnc2)[C@@H]1OC(=O)c1cccnc1)c1cccnc1 (stereo partly drawn) [Compound 14, (5-{6-[((3R)oxolan-3-yl)amino]purin-9-yl}(2R, 3R, 4R)-3,4-di(3-pyridylcarbonyloxy)oxolan-2-yl)methyl pyridine-3-carboxylate] | + (Heart rate decreased by 50 BPM) | 
13 | CC(=O)OC[C@H]1OC(n2cnc3c(N[C@@H]4CCOC4)ncnc32)[C@H](OC(=O)C(C)C)[C@@H]1OC(=O)C(C)C (stereo partly drawn) [Compound 15, 2-{6-[((3R)oxolan-3-yl)amino]purin-9-yl}(3R, 4R, 5R)-5-(acetyloxymethyl)-4-(2-methylpropanoyloxy)oxolan-3-yl 2-methylpropanoate] | +++ (Heart Rate decreased by 100-150 BPM) | decrease in heart rate (Rat Heart Rate [1]; rats): 100-150 beats per minute
14 | CC(=O)OC[C@H]1OC(n2cnc3c(NC4CCOC4)ncnc32)[C@H](OC(=O)C2CCCC2)[C@@H]1OC(=O)C1CCCC1 (stereo partly shown) [Compound 16] | + (Heart rate decreased by 50 BPM) | 
15 | CC(C)C(=O)O[C@@H]1[C@@H](COC(=O)C2CCCC2)OC(n2cnc3c(N[C@@H]4CCOC4)ncnc32)[C@@H]1OC(=O)C(C)C (stereo partly drawn) [Compound 17, 2-{6-[((3R)oxolan-3-yl)amino]purin-9-yl}(3R, 4R, 5R)-5-(cyclopentylcarbonyloxymethyl)-4-(2-methylpropanoyloxy)oxolan-3-yl 2-methylpropanoate] | − | 
16 | CC(=O)O[C@@H]1[C@@H](COC(=O)C2CCCC2)OC(n2cnc3c(N[C@@H]4CCOC4)ncnc32)[C@@H]1OC(C)=O (stereo partly drawn) [Compound 18, 2-{6-[((3R)oxolan-3-yl)amino]purin-9-yl}(3R, 4R, 5R)-4-acetyloxy-5-(cyclopentylcarbonyloxymethyl)oxolan-3-yl acetate] | + (Heart rate decreased by 50 BPM) | 
17 | CC(=O)O[C@@H]1[C@@H](COC(=O)C(C)C)OC(n2cnc3c(N[C@@H]4CCOC4)ncnc32)[C@@H]1OC(C)=O (stereo partly drawn) [Compound 19, (5-{6-[((3R)oxolan-3-yl)amino]purin-9-yl}(2R, 3R, 4R)-3,4-diacetyloxyoxolan-2-yl)methyl 2-methylpropanoate] | +++ (Heart Rate decreased by 100-150 BPM) | decrease in heart rate (Rat Heart Rate [1]; rats): 100-150 beats per minute
18 | CC(C)C(=O)OC[C@H]1OC(n2cnc3c(NC4CCOC4)ncnc32)[C@H](OC(=O)C2CCCC2)[C@@H]1OC(=O)C1CCCC1 (stereo partly shown) [Compound 20] | − | 
19 | CC(=O)O[C@@H]1[C@H](OC(C)=O)[C@@H](COC(=O)[C@@H](N)C(C)C)O[C@H]1n1cnc2c(N[C@@H]3CCOC3)ncnc21 [Compound 21, (5-{6-[((3R)oxolan-3-yl)amino]purin-9-yl}(2R, 3R, 4R)-3,4-diacetyloxyoxolan-2-yl)methyl (2S)-2-amino-3-methylbutanoate] | + (Heart rate decreased by 50 BPM) | 
20 | CC(C)[C@H](N)C(=O)OC[C@H]1O[C@@H](n2cnc3c(N[C@@H]4CCOC4)ncnc32)[C@H](O)[C@@H]1O [Compound 28, (5-{6-[((3R)oxolan-3-yl)amino]purin-9-yl}(2R, 3S, 4R)-3,4-dihydroxyoxolan-2-yl)methyl (2S)-2-amino-3-methylbutanoate] | − | 
21 | CC(=O)O[C@@H]1[C@@H](CO)OC(n2cnc3c(N[C@@H]4CCOC4)ncnc32)[C@@H]1OC(C)=O (stereo partly drawn) [Compound 31, 2-{6-[((3R)oxolan-3-yl)amino]purin-9-yl}(3R, 4R, 5R)-4-acetyloxy-5-(hydroxymethyl)oxolan-3-yl acetate] |  | activity upon oral dosing in rats (Rat Heart Rate [2]; rats, oral dosing, compared with the triple pro-drugs (Table 1)): lower activity
22 | CC(=O)OC[C@H]1OC(n2cnc3c(N[C@@H]4CCOC4)ncnc32)[C@H](O)[C@@H]1O (stereo partly drawn) [Compound 34, (5-{6-[((3R)oxolan-3-yl)amino]purin-9-yl}(3S, 2R, 4R)-3,4-dihydroxyoxolan-2-yl)methyl acetate] | − | 
